Test results reported in patent US11350634B2, “Method for preparing biopesticide preparation for preventing and controlling Solenopsis invicta” (GUANGDONG INSTITUTE OF APPLIED […], priority 2017, dated 2022).

How the values were obtained:
[1] = test system: Solenopsis invicta worker ants; test: Laboratory virulence test of the combination of Beauveria bassiana and sodium chloride (Embodiment 1 method); assay type: in vivo; conditions: for synergism / effect on the pesticidal effect of Beauveria bassiana: salt added to Beauveria bassiana solution instead of sodium chloride, Embodiment 1 test
Procedure: In the laboratory virulence test, 5 g of Beauveria bassiana powder formulation was dissolved in 1 L of water and mixed well to give a Beauveria bassiana solution. The used Beauveria bassiana powder formulation contained 20 billion/g of Beauveria bassiana spores. 9 Beauveria bassiana solutions, 100 mL each, were taken from the IL Beauveria bassiana solution, and respectively added with NaCl so that NaCl concentrations in the 9 Beauveria bassiana solutions were: 0 mmol/L, 25 mmol/L, 75 mmol/L, 100 mmol/L, 125 mmol/L, 150 mmol/L, 200 mmol/L, 250 mmol/L, and 300 mmol/L, and thereby Beauveria bassiana/sodium chloride aqueous dispersions were obtained, wherein the Beauveria bassiana spores were present in a concentration of 1×10^8/mL.
The Beauveria bassiana solution, the Beauveria bassiana/sodium chloride aqueous solution, a sodium chloride solution (125 mmol/L), and sterile water were respectively tested for virulence against healthy Solenopsis invicta worker ants, with 3 replicates for each treatment, 1 petri dish in each replicate, and 100 Solenopsis invicta worker ants in each petri dish. […] Data statistical analysis was performed using SPSS 13.0 software, significance testing between samples was performed using the Duncan's method, wherein different lowercase letters indicate a significant difference (P<0.05) in cumulative mortality of the treated Solenopsis invicta.

[2] = test system: Solenopsis invicta worker ants; test: Laboratory virulence test of the Beauveria bassiana/sodium chloride aqueous dispersion of water dispersible granule formulation (with adjuvants); assay type: in vivo; conditions: worker ants dipped about 5 seconds, 96 hours after treatment, 1×10^8/mL spores, NaCl alone 125 mmol/L, FIG. 2
Excerpt: A totally 30 g of Beauveria bassiana powder formulation and sodium chloride (wherein a mass ratio of the Beauveria bassiana powder formulation to sodium chloride included 5:1.46, 5:4.38; 5:5.84, 5:7.30, 5:8.77, 5:11.69, 5:14.61 g, and 5:17.53, and the Beauveria bassiana powder formulation contained 20 billion Beauveria bassiana spores per gram), 8 g of wetting agent butylnaphtalenesulfonic acid sodium salt, 18 g of dispersant sodium lignosulfonate, 5 g of disintegrant calcium chloride, 2 g of stabilizer disodium hydrogen phosphate, 5 g of binder sodium polyacrylate, and 32 g of carrier diatomite, were weighed out and mixed according to a method for preparing a water dispersible granule formulation (1. The raw materials were mixed evenly according to the formula. 2. The materials were ground using a sand mill after mixed evenly, and subjected to spray granulation after determined to be acceptable. 3. The products were screened using a vibrating screen after the spray granulation, products with unacceptable appearance were returned to the sand mill to be ground again, and products with acceptable appearance were further subjected to quality inspection wherein products with unacceptable quality were also returned to the sand mill to be ground again. 4. Products with acceptable quality were packaged. 5. […]

Compound	96 h cumulative mortality / pesticidal effect ([1]; worker ants dipped about 5 seconds, 96 hours after treatment, 1×10^8/mL spores, NaCl alone 125 mmol/L, no adjuvants, FIG. 1)	96 h cumulative mortality / pesticidal effect [2]	synergism / effect on the pesticidal effect of Beauveria bassiana [1]
[Cl-].[Na+] [NaCl, sodium chloride]	no killing effect	no killing effect	
[Ca+2].[Cl-].[Cl-] [calcium chloride]			no significant difference
[Cl][Fe]([Cl])[Cl] [ferric chloride]			no significant difference
[Cl-].[Cl-].[Mg+2] [magnesium chloride]			no significant difference
[Cl-].[K+] [potassium chloride]			no significant difference
